Results on 56 molecules are retold here after ChEMBL document CHEMBL5726389, “Heterocyclic compounds and uses thereof” (2017).

A short description of the test: The TLC plates are then dried, exposed to a phosphorimager screen (Storm, Amersham), and quantitated. For each compound, kinase activity is measured at 10-12 inhibitor concentrations representing two-fold dilutions from the highest concentration tested (typically, 200 μM).

In general, IC50 refers to the concentration needed to halve the response being measured. In the case of `C[C@H](NC(=O)c1c(N)nn2cccnc12)c1cc2cccc(Cl)c2c(=O)n1-c1ccc(S(C)(=O)=O)cc1`, the IC50 result was “in the range around 5.5 µM”.
To `C[C@H](NC(=O)c1c(N)nn2cccnc12)c1cc2cccc(Cl)c2c(=O)n1CCS(N)(=O)=O` belongs “in the range around 5.5 µM”; to `C#CCCn1c([C@H](C)NC(=O)c2c(N)nn3cccnc23)cc2cccc(Cl)c2c1=O`, “in the range around 5.5 µM”.
With `C[C@H](NC(=O)c1c(N)nn2cccnc12)c1cc2cccc(Cl)c2c(=O)n1-c1ccccc1NS(C)(=O)=O` the entry was “in the range around 5.5 µM”.
To `C[C@H](NC(=O)c1c(N)nn2cccnc12)c1cc2cccc(OCc3cnn(C)c3)c2c(=O)n1-c1ccccc1` belongs “in the range around 5.5 µM”.
For the molecule `C[C@H](NC(=O)c1c(N)nn2cccnc12)c1nc2cccc(Cl)c2c(=O)n1-c1ccc(F)c(F)c1`, the IC50 entry is “in the range around 5.5 µM”.
With `C[C@H](NC(=O)c1c(N)nn2cccnc12)c1cc2cccc(Cl)c2c(=O)n1-c1cccnc1` the entry was “in the range around 5.5 µM”.
To `C[C@H](NC(=O)c1c(N)nn2cccnc12)c1oc2ccc(F)cc2c(=O)c1-c1ccccc1` belongs “in the range around 5.5 µM”; to `C[C@H](NC(=O)c1c(N)nn2cccnc12)c1cc2cccc(OCC(F)(F)F)c2c(=O)n1-c1ccccc1`, “in the range around 5.5 µM”.
For `C[C@H](NC(=O)c1c(N)nn2cccnc12)c1cc2cccc(-c3cnn(CC#N)c3)c2c(=O)n1-c1ccccc1`, the IC50 entry was “in the range around 5.5 µM”.
`C[C@H](NC(=O)c1c(N)nn2cccnc12)c1cc2cccc(Cl)c2c(=O)n1CCCS(C)(=O)=O`: the IC50 entry is “in the range around 5.5 µM”.
To `C[C@H](NC(=O)c1c(N)ncn2ccnc12)c1cc2cccc(Cl)c2c(=O)n1-c1ccccc1` belongs “in the range around 5.5 µM”.
Regarding `C[C@H](NC(=O)c1c(N)nn2cccnc12)c1nc2cccc(Cl)c2c(=O)n1-c1ccc(F)cc1`, the IC50 entry was “in the range around 5.5 µM”.
For `C[C@H](NC(=O)c1c(N)nn2cccnc12)c1cc2cccc(Cl)c2c(=O)n1-c1cccc(S(C)(=O)=O)c1`, the IC50 result is “in the range around 5.5 µM”.
Consider `C[C@H](NC(=O)c1nccnc1N)c1cc2cccc(C(F)(F)F)c2c(=O)n1-c1ccccc1`, for which the IC50 result was “in the range around 5.5 µM”.
Turning to `C[C@H](NC(=O)c1c(N)nn2cccnc12)c1cc2cccc(Cl)c2c(=O)n1C1CCC1`, the IC50 entry was “in the range around 5.5 µM”.
As to `CC(=O)Cc1cccc2nc([C@H](C)NC(=O)c3c(N)nn4cccnc34)n(-c3ccccc3)c(=O)c12`, the IC50 entry is “in the range around 5.5 µM”.
To `C[C@H](NC(=O)c1c(N)nn2cccnc12)c1cc2cccc(Cl)c2c(=O)n1CCc1nnnn1C` belongs “in the range around 5.5 µM”.
With `Cc1noc(CCn2c([C@H](C)NC(=O)c3c(N)nn4cccnc34)cc3cccc(Cl)c3c2=O)n1` the entry was “in the range around 5.5 µM”.
With `CCS(=O)(=O)NCCn1c([C@H](C)NC(=O)c2c(N)nn3cccnc23)cc2cccc(Cl)c2c1=O` the entry was “in the range around 5.5 µM”.
Regarding `C[C@H](NC(=O)c1c(N)nn2cccnc12)c1cc2cccc(Cl)c2c(=O)n1CCNS(C)(=O)=O`, the IC50 result was “in the range around 5.5 µM”.
Turning to `C[C@H](NC(=O)c1c(N)nn2cccnc12)c1cc2cccc(CC(=O)C(C)(C)C)c2c(=O)n1-c1ccccc1`, the concentration for half-maximal inhibition (IC50) result is “in the range around 5.5 µM”.
With `COc1ccccc1-n1c([C@H](C)NC(=O)c2c(N)nn3cccnc23)cc2cccc(Cl)c2c1=O` the entry was “in the range around 5.5 µM”; with `C[C@H](NC(=O)c1c(N)nn2cccnc12)c1cc2cccc(Cl)c2c(=O)n1CCc1ncn[nH]1`, “in the range around 5.5 µM”; with `CNS(=O)(=O)CCn1c([C@H](C)NC(=O)c2c(N)nn3cccnc23)cc2cccc(Cl)c2c1=O`, “in the range around 5.5 µM”.
Consider `C[C@H](NC(=O)c1c(N)nn2cccnc12)c1cc2cccc(Cl)c2c(=O)n1CCc1c[nH]cn1`, for which the IC50 entry is “in the range around 5.5 µM”.
To `C[C@H](NC(=O)c1c(N)nn2cccnc12)c1nc2c(Cl)cccc2c(=O)n1-c1ccccc1` belongs “in the range around 5.5 µM”.
Regarding `C[C@H](NC(=O)c1c(N)nn2cccnc12)c1cc2cccc(Cl)c2c(=O)n1CCc1cnn[nH]1`, the IC50 result was “in the range around 5.5 µM”.
With `Cc1cccc2c(=O)n(-c3ccccc3)c([C@H](C)NC(=O)c3c(N)nn4cccnc34)nc12` the entry was “in the range around 5.5 µM”; with `C[C@H](NC(=O)c1c(N)nn2cccnc12)c1cc2cccc(Cl)c2c(=O)n1-c1ccccc1O`, “in the range around 5.5 µM”; with `C[C@H](NC(=O)c1c(N)nn2cccnc12)c1cc2cccc(Cl)c2c(=O)n1-c1cccc(O)c1`, “in the range around 5.5 µM”.
Regarding `C[C@H](NC(=O)c1c(N)nn2cccnc12)c1cc2cccc(Cl)c2c(=O)n1CCS(=O)(=O)N(C)C`, the IC50 result is “in the range around 0.75 µM”.
To `C[C@H](NC(=O)c1nccnc1N)c1oc2ccc(F)cc2c(=O)c1-c1ccccc1` belongs “in the range around 5.5 µM”; to `C[C@H](NC(=O)c1c(N)nn2cccnc12)c1cc2cccc(Cl)c2c(=O)n1-c1ccc(NS(C)(=O)=O)cc1`, “in the range around 5.5 µM”; to `C[C@H](NC(=O)c1c(N)nn2cccnc12)c1cc2cccc(Cl)c2c(=O)n1CCc1noc(C(C)(C)C)n1`, “in the range around 5.5 µM”.
With `CC(C)C(=O)Cc1cccc2cc([C@H](C)NC(=O)c3c(N)nn4cccnc34)n(-c3ccccc3)c(=O)c12` the entry was “in the range around 5.5 µM”; with `C[C@H](NC(=O)c1c(N)nn2cccnc12)c1cc2cccc(Cl)c2c(=O)n1CCc1ccccc1`, “in the range around 5.5 µM”; with `C[C@H](NC(=O)c1c(N)nn2cccnc12)c1nc2ccccc2c(=O)n1-c1ccccc1`, “in the range around 5.5 µM”.
With `C[C@H](NC(=O)c1c(N)nn2cccnc12)c1cc2cccc(Cl)c2c(=O)n1-c1ccccc1F` the entry was “in the range around 5.5 µM”.
As for `C[C@H](NC(=O)c1c(N)nn2cccnc12)c1cc2cccc(Cl)c2c(=O)n1-c1cccc(NS(C)(=O)=O)c1`, the IC50 entry is “in the range around 5.5 µM”.
To `C[C@H](NC(=O)c1nc(C2CC2)cnc1N)c1cc2cccc(Cl)c2c(=O)n1-c1ccccc1` belongs “in the range around 5.5 µM”; to `C[C@H](NC(=O)c1c(N)nn2cccnc12)c1cc2cccc(Cl)c2c(=O)n1CCCNS(C)(=O)=O`, “in the range around 0.75 µM”.
To `C[C@H](NC(=O)c1c(N)nn2cccnc12)c1nc2ccc(Cl)cc2c(=O)n1-c1ccccc1` belongs “in the range around 5.5 µM”.
With `C[C@H](NC(=O)c1c(N)nn2cccnc12)c1cc2cccc(Cl)c2c(=O)n1-c1ccc(O)cc1` the entry was “in the range around 5.5 µM”; with `Cc1ccnc2c(C(=O)N[C@@H](C)c3cc4cccc(Cl)c4c(=O)n3-c3ccccc3)c(N)nn12`, “in the range around 5.5 µM”; with `C[C@H](NC(=O)c1c(N)nn2cccnc12)c1cc2cccc(Cl)c2c(=O)n1CCc1nnn[nH]1`, “in the range around 5.5 µM”.
On to `C[C@H](NC(=O)c1c(N)nn2cccnc12)c1cc2cccc(Cl)c2c(=O)n1Cc1nnn[nH]1`, for which the IC50 entry was “in the range around 5.5 µM”.
Take `Cc1ccccc1-n1c([C@H](C)NC(=O)c2c(N)nn3cccnc23)cc2cccc(Cl)c2c1=O`: the IC50 entry was “in the range around 5.5 µM”.
To `CCn1cc(-c2cccc3cc([C@H](C)NC(=O)c4c(N)nn5cccnc45)n(-c4ccccc4)c(=O)c23)cn1` belongs “in the range around 5.5 µM”; to `Cc1cccc(-n2c([C@H](C)NC(=O)c3c(N)nn4cccnc34)cc3cccc(Cl)c3c2=O)c1`, “in the range around 5.5 µM”; to `C[C@H](NC(=O)c1c(N)nn2cccnc12)c1cc2cccc(-c3cnn(CC(F)(F)F)c3)c2c(=O)n1-c1ccccc1`, “in the range around 5.5 µM”.
As for `C[C@H](NC(=O)c1nccnc1N)c1nc2cccc(Cl)c2c(=O)n1-c1ccc(F)cc1`, the IC50 entry was “in the range around 5.5 µM”.
With `Cc1ccc(-n2c([C@H](C)NC(=O)c3c(N)nn4cccnc34)cc3cccc(Cl)c3c2=O)cc1` the entry was “in the range around 5.5 µM”.
With `C[C@H](NC(=O)c1c(N)nn2cccnc12)c1nc2cccc(N3CCOCC3)c2c(=O)n1-c1ccccc1` the entry was “in the range around 5.5 µM”.
Consider `C[C@H](NC(=O)c1c(N)nn2cccnc12)c1cc2cccc(Cl)c2c(=O)n1CCc1nnn(C)n1`, for which the IC50 entry is “in the range around 5.5 µM”.
To `C[C@H](NC(=O)c1c(N)nn2cccnc12)c1cc2cccc(Cl)c2c(=O)n1C1CC(NS(C)(=O)=O)C1` (stereo partly specified) belongs “in the range around 5.5 µM”.
